Earlier results, collected in US6528013B1, “Uncomplexed cyclodextrin compositions for odor and wrinkle control” (The Procter & Gamble Company, priority 1998, dated 2003).

For `[Na+].[O-][n+]1ccccc1[S-]` [sodium pyrithione], the solubility in water is given as “about 50%”. In the case of `OCCOc1ccccc1` [2-phenoxyethanol], the solubility in water is listed as “about 2.67%”. For `CC(C)(O)C(Cl)(Cl)Cl` [chlorobutanol, 1,1,1-Trichloro-2-methylpropan-2-ol, reference compound], the solubility in water is listed as “about 0.8%”. In the case of `[H]/N=C(\N/C(=N/[H])NCCCCCCNC(=N)NC(=N)Nc1ccc(Cl)cc1)Nc1ccc(Cl)cc1` [chlorhexidine digluconate, 1,1′-hexamethylene bis(5-(p-chlorophenyl)biguanide), reference compound], the solubility in water is given as “about 70%”. For `O=[N+]([O-])C(Br)(CO)CO` [Bronopol, 2-bromo-2-nitropropane-1,3-diol], the solubility in water is given as “about 25%”. In the case of `OCCc1ccccc1` [2-phenylethanol], the solubility in water is given as “about 2%”. In the case of `ClC=CC[N+]12CN3CN(CN(C3)C1)C2.[Cl-]` [Dowicil 200, 1-(3-Chlorallyl)-3,5,7-triaza-1-azoniaadamantane chloride], the “solubility in water” value is listed as “freely soluble in water”. In the case of `CC1(C)C(=O)N(CO)C(=O)N1CO` [DMDM hydantoin, 1,3-bis(hydroxymethyl)-5,5-dimethyl-2,4-imidazolidinedione], the solubility in water is given as “more than 50%”. In the case of `O=[N+]([O-])C1(Br)COCOC1` [Bronidox L, 5-bromo-5-nitro-1,3-dioxane], the solubility in water is listed as “about 0.46%”. In the case of `[H]/N=C(\N/C(=N/[H])NCCCCCCNC(=N)NC(=N)Nc1ccc(Cl)cc1)Nc1ccc(Cl)cc1` [chlorhexidine diacetate, 1,1′-hexamethylene bis(5-(p-chlorophenyl)biguanide), reference compound], the solubility in water is listed as “about 1.8%”. In the case of `OCc1ccccc1` [benzyl alcohol], the solubility in water is given as “about 4%”.
